What was measured:
S. japonicum = S. japonicum infections in mice; type: in vivo
adult S. mansoni = experiment: ex vivo exposure of adult S. mansoni; set-up: species or system Schistosoma mansoni; conditions: S. mansoni worms exposed ex vivo
Text: Without wishing to be bound to any particular theory, it is believed that the activity of the disclosed compounds is mediated at least in part by a host effect.

[1] = Kinetic solubility (nephelometry); type: physicochemical; conditions: aqueous buffer, kinetic from dmso stock; kinetic solubility, pH 6.5 phosphate buffer; read-out: Sol6.5
Method: Kinetic Solubility. Compounds in DMSO (10 mg/mL) were diluted into either pH 6.5 phosphate buffer or 0.01 M HCl (approx. pH 2.0) with the final DMSO concentration being 1%. Samples were then analysed via nephelometry to determine a solubility range (Bevan and Lloyd, 2000).

SMILES | ED50 (S. japonicum; Schistosoma japonicum, oral) [mg/kg] | clearance of S. japonicum infections (S. japonicum; single 25 mg/kg oral dose) | changes via transcriptomic and ultraresolution microscopy (adult S. mansoni) | solubility kinetic [1] [µg/mL]
[2H]C([2H])([2H])C1(C([2H])([2H])[2H])NC(=O)N(c2ccc(F)c(C(C)(F)F)c2)C1=O [Compound IE, 3-(3-(1,1-difluoroethyl)-4-fluorophenyl)-5,5-bis(methyl-d3)imidazolidine-2,4-dione] | 6.7 | completely cleared | no significant changes | 
CC1(C)NC(=O)N(c2ccc(F)c(C(C)(F)F)c2)C1=O [Compound IC, 3-(3-(1,1-difluoroethyl)-4-fluorophenyl)-5,5-dimethylimidazolidine-2,4-dione] |  |  |  | > 100
